Laboratory results taken from ChEMBL document CHEMBL1136797, “Fumagalone, a reversible inhibitor of type 2 methionine aminopeptidase and angiogenesis” (J Med Chem, 2003).
One block for each molecule: values may come before it. Activity calls are given as the source filed them. No cut-off for these calls is given here.

Tests used:
[1] = Inhibition of indothelial cell ploriferation determined in bovine aortic endothelial cell (BAEC); type: functional, cell-based, Bos taurus
[2] = Inhibition of endothelial cell ploriferation determined in bovine aortic endothelial cell (BAEC); type: functional, cell-based, Bos taurus
[3] = biological target: T1, Methionine aminopeptidase 2 (Homo sapiens, UniProt P50579); assay: In vitro inhibitory activity against purified recombinant human Methionine Aminopeptidase 2 (MetAP2)
Target sequence in this assay (P50579 whole entry): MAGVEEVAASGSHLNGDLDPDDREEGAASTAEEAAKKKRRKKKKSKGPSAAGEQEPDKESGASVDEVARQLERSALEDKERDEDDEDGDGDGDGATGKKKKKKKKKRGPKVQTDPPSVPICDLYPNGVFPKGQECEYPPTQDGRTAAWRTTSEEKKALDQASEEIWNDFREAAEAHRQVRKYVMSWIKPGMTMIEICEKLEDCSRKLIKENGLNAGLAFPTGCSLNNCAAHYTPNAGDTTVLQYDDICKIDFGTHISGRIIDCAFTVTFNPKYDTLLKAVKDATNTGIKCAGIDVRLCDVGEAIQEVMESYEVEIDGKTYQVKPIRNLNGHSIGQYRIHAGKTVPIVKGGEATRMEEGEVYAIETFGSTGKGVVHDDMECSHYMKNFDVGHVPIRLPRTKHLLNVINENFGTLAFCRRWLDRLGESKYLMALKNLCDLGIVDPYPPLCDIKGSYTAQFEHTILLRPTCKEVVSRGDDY

Endothelial cell [4] = assay: Inhibition of indothelial cell ploriferation determined in bovine aortic endothelial cell (BAEC); Inactive; type: functional, cell-based; details: Bos taurus
[5] = biological target: T1, Methionine aminopeptidase 2
Target sequence in this assay (P50579 2-478 limits assumed): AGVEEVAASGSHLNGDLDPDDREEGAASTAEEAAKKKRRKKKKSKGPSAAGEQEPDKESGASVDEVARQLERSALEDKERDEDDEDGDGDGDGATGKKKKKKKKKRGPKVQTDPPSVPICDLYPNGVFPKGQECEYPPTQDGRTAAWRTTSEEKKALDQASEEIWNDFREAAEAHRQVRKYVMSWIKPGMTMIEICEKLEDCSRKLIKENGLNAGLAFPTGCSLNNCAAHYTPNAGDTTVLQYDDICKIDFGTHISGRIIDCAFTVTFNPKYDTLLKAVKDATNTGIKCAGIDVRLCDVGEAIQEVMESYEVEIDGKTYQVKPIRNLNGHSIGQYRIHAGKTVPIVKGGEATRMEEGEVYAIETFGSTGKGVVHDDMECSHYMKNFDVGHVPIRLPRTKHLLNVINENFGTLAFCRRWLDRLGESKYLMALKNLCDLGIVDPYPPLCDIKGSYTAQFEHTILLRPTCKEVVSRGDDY

Endothelial cell [6] = assay: Inhibition of endothelial cell ploriferation determined in bovine aortic endothelial cell (BAEC); Inactive; type: functional, cell-based; details: Bos taurus

SMILES: CO[C@@H]1[C@H](O)CC[C@](O)(C=O)[C@H]1[C@@]1(C)O[C@@H]1CC=C(C)C
- NA (Endothelial cell [4]): inactive

SMILES: CO[C@@H]1C(=O)CC[C@](O)(C[S+]([O-])c2ccccc2)[C@H]1[C@@]1(C)O[C@@H]1CC=C(C)C (some centres not stated)
- NA [5]: inactive
- NA (Endothelial cell [4]): inactive

SMILES: CO[C@H]1[C@H]([C@@]2(C)O[C@H]2CC=C(C)C)[C@@](O)(C=O)CC[C@@H]1O
- NA (Endothelial cell [6]): inactive

More lines, now with the values ahead:

- IC50 [1]: 52 nM
SMILES: CO[C@@H]1C(=O)CC[C@](O)(C=O)[C@H]1[C@@]1(C)O[C@H]1CC=C(C)C

- IC50 [2]: 200 nM
- IC50 [3]: 1 nM
SMILES: CO[C@@H]1[C@H](OC(=O)/C=C/C=C/C=C/C=C/C(=O)O)CC[C@]2(CO2)[C@H]1[C@@]1(C)O[C@@H]1CC=C(C)C [FUMAGILLIN]
